Results: patent publication US20240327444A1, “Method for Purifying Nucleotides, Device for Purifying Nucleotides, Hy-Drophobic Reagent, and Hydrophobic Substrate” (Japan Science and Technology Agency, priority 2021, published 2024)
Entries after “also recorded” stand apart in the source; their conditions may differ.

Experiments:
Assay type in all cases: cell-based
JAWS II cells = experiment: Translation activity of Luc2 mRNA transcriptionally synthesized using a cap analog, JAWS II cells (FIG. 38); settings: lipofection, after 24 hours, versus Tri_1 (CleanCap Reagent AG structure)
Method: (§1) An RNA was transcriptionally synthesized with T7 RNA polymerase using a double-stranded DNA as a template. The double-stranded DNA of the template was obtained by amplifying pSP73-a-luc2 (described at the end of the experimental section) encoding the Luc2 gene by a PCR reaction using KOD-Plus-Neo (TOYOBO), Fw primer (cgcgttggccgattcatt: SEQ ID NO: 3), Rev primer ([…]: SEQ ID NO: 4) (1.0 ng/μL DNA vector, 1×KOD-Plus-Neo buffer, 0.2 mM dNTPs, 0.3 μM primers, 1.5 mM MgSO4, 0.02 units/μL polymerase). […]
(§2) Deprotection by photoirradiation: The RNA solution was added to a transparent 96-multiwell plate, and irradiated with 365 nm light at a quantity of light of 4 mW/cm^2 for 15 minutes using a MAX-305 light source device (Asahi Spectra Co., Ltd.). […]
FIG. 38 is a diagram showing the result of evaluation of translation activity in JAWS II cells of an RNA transcriptionally synthesized using a cap analog. […] After 24 hours, the cells were lysed and the luminescence of firefly luciferase was measured. […]
Evaluation of intracellular translation activity (JAWS II cells): JAWS II cells (ATCC) were cultivated (37° C., 5% CO2) in Minimum Essential Medium α(MEM α; Thermo Fisher SCIENTIFIC) with addition of 10% fetal bovine serum (FBS; Invitrogen) and GM-CSF (5 ng/mL). […] Luminescence was measured using ONE-Glo (registered trademark) luciferase assay (registered trademark) (Promega).

HeLa cells [1] = experiment: Translation activity of Luc2 mRNA transcriptionally synthesized using a cap analog, HeLa cells (FIG. 37); settings: lipofection, after 24 hours, versus Tri_1 (CleanCap Reagent AG structure)
Method: as §1, §2
FIG. 37 is a diagram showing the result of evaluation of translation activity in a HeLa cell of RNAs transcriptionally synthesized using a cap analog. […] After 24 hours, the cells were lysed and the luminescence of firefly luciferase was measured. […]
HeLa cells (RIKEN Cell Bank) were cultivated (37° C., 5% CO2) in Dulbecco's modified Eagle's medium (DMEM; WAKO) with addition of 10% fetal bovine serum (FBS; Invitrogen). […] Luminescence was measured using ONE-Glo (registered trademark) luciferase assay (registered trademark) (Promega).

[2] = tested on: NF-κB reporter (Luc)-HEK 293 cells; experiment: Evaluation of intracellular immune response, NF-κB reporter luciferase assay (FIG. 43, 45); settings: FIG. 45; HEK 293 NF-kB cells, 50 ng and 100 ng mRNA, 24 hours
Method: NF-κB reporter (Luc)-HEK 293 cells (BPS Bioscience Inc.) were cultivated (37° C., 5% CO2) in a Dulbecco's modified Eagle's medium (DMEM; WAKO) with addition of 10% fetal bovine serum (FBS; Invitrogen), 100 μg/ml of Hygromycin B. The day before transfection, NF-κB reporter (Luc)-HEK 293 cells were seeded in a 48-well plate (7.5×10^4 cells/well). The next day, the medium was removed and replaced with 225 μL/well Opti-MEM (registered trademark) (Thermo Fisher SCIENTIFIC). 0.375 μL Lipofectamine (registered trademark) Messenger MAX (registered trademark) and 12.5 ng mRNA (DiPure) were diluted in 25 μL Opti-MEM (registered trademark) and introduced into cells. After incubation at 37° C. for 5 hours, 50 μL/well 1× Cell Lysis Buffer (Promega) was added to lyse the cells. Luminescence was measured using ONE-Glo (registered trademark) luciferase assay (registered trademark) (Promega). The protein amount was quantified using Pierce (registered trademark) BCA Protein Assay Kit (Thermo Fisher SCIENTIFIC), and the luminescence value was corrected by the number of cells.
NF-κB reporter (Luc)-HEK 293 cells (BPS Bioscience Inc.) were cultivated (37° C., 5% CO2) in a Dulbecco's modified Eagle's medium (DMEM; WAKO) with addition of 10% fetal bovine serum (FBS; Invitrogen), 100 μg/ml of Hygromycin B. The day before transfection, NF-κB reporter (Luc)-HEK 293 cells were seeded in a 48-well plate (1.0×10^5 cells/well). The next day, the medium was removed and replaced with 240 μL/well Opti-MEM (registered trademark) (Thermo Fisher SCIENTIFIC). 0.15 μL Lipofectamine (registered trademark) Messenger MAX (registered trademark) and 100 ng mRNA were diluted in 10 μL Opti-MEM (registered trademark) and introduced into cells. After incubation at 37° C. for 24 hours, 50 μL/well 1× Cell Lysis Buffer (Promega) was added to lyse the cells. Luminescence was measured using ONE-Glo (registered trademark) luciferase assay (registered trademark) (Promega). The protein amount was quantified using Pierce (registered trademark) BCA Protein Assay Kit (Thermo Fisher SCIENTIFIC), and the luminescence value was corrected by the number of cells.

HeLa cells [3] = experiment: Translation activity of NanoLuc luciferase mRNA (capped with cap analog, reverse-phase HPLC purified) lipofected into HeLa cells (FIG. 30, 31)
Method: In (A) of the figure, a cap analog compound was added, a NanoLuc luciferase mRNA (650-base-long) was transcriptionally synthesized using T7 RNA polymerase, and the transcription reaction was analyzed by denaturing polyacrylamide gel (5%, containing 7.5 M urea as a denaturant) electrophoresis. The composition of the transcription reaction liquid and the reaction conditions are shown below.
15 ng/μL dsDNA transcription template (PCR product of 676-bp containing T7 promoter sequence 5′TAATACGACTCACTATAG3′-(SEQ ID NO: 1) and containing a NanoLuc luciferase gene coding region derived from a pNL1.1 TK vector (Promega)), 2 mM ATP, 2 mM UTP, 2 mM CTP, 2 mM GTP or [0.5 mM GTP+2 mM Cap Analog], 40 mM Tris-HCl (pH 8.0), 8 mM MgCl2, 2 mM spermidine, 5 mM DTT, 10 units/μL T7 RNA polymerase (Takara Bio Inc.).
FIG. 30 is a diagram showing the evaluation of the translation activity of a NanoLuc luciferase mRNA after reverse-phase HPLC isolation and purification. The activity was indicated with the expression level of the mRNA prepared without addition of the cap analog being 1.
FIG. 31 is a diagram showing the evaluation of the translation activity of a NanoLuc luciferase mRNA after reverse-phase HPLC isolation and purification. The activity was indicated with the expression level of the mRNA prepared without addition of the cap analog being 1. […]

COC1[C@@H](OP(=O)([O-])OC[C@H]2O[C@@H](n3cnc4c(=O)[nH]c(N)nc43)C(O)[C@H]2O)[C@@H](COP(=O)([O-])OP(=O)([O-])OP(=O)([O-])OC[C@H]2O[C@@H](n3c[n+](C)c4c([O-])nc(N)nc43)C(OCOC(c3ccccc3[N+](=O)[O-])C(C)(C)C)[C@H]2O)O[C@H]1n1cnc2c(N)ncnc21.[Na+].[Na+].[Na+].[Na+] (some centres unmarked) [TriPure_1, Nb-^m7GpppA(2′OCH3)pG]
translation activity relative to Tri_1 (firefly luciferase luminescence) (JAWS II cells): about 24 times | translation activity relative to Tri_1 (firefly luciferase luminescence) (HeLa cells [1]): about 2 times | intracellular immune response (NF-κB reporter luminescence) [2]: lower immune response than conventional mRNAs synthesized using ARCA

P1-(N^2-tBu-nitrobenzyloxycarbonyl-N^7-methylguanosin-5′-yl) P3-guanosin-5′-yl triphosphate [Cap Analog_1]
translation activity (amount of expressed NanoLuc luciferase; expression level of mRNA prepared without cap analog being 1) (HeLa cells [3]; FIG. 30, mRNA 20 ng/well, cultivated 7 hours, before and after photoirradiation/deprotection): does not show high translation activity unless it is irradiated with light and deprotected; also recorded: can completely inhibit translation activity in the protected state

C[n+]1cn([C@@H]2O[C@H](COP(=O)(O)OP(=O)([O-])OP(=O)(O)OC[C@H]3O[C@@H](n4cnc5c(=O)[nH]c(N)nc54)C(O)[C@H]3O)[C@H](O)C2OCOC(c2ccccc2[N+](=O)[O-])C(C)(C)C)c2nc(N)nc(O)c21 (mixture of isomers) [Cap Analog_2, P1-{N^7-Methyl-2′-O-[2,2-dimethyl-(R/S)-1-(2-nitrophenyl)propyloxy]methylguanosin-5′-yl} P3-guanosin-5′-yl triphosphate]
translation activity compared with mRNA prepared using ARCA cap analog (HeLa cells [3]; FIG. 31, mRNA 5 ng/well, cultivated 23 hours): higher translation activity compared to the RNA capped with ARCA
